Data as given in patent US20080058399A1, “Pharmaceutical Compositions” (ASTRAZENECA AB, priority 2006, published 2008).
Read-outs that look alike come from different tables or passages of the source.

Experiments:
[1] = Dissolution study, USP dissolution apparatus II; assay type: physicochemical; settings: 500 ml 0.2% polysorbate 20 in 0.05 M phosphate buffer pH 6.5, paddle 75 rpm; 8 mg c.c. added except tablets as footnoted
Protocol: The medium used for dissolution studies was 500 ml of 0.2% polysorbate 20 in 0.05 M phosphate buffer pH 6.5 with a paddle speed of 75 rpm (USP dissolution apparatus II). In all dissolution tests, 8 mg of candesartan cilexetil was added to the medium (except where other is stated). After extraction with 60% (v/v) acetonitrile in water (filter pore size 0.45 μm), the amount of candesartan cilexetil was determined by liquid chromatography and UV-detection at 254 nm.

[2] = cited from earlier work
[3] = Bioavailability in rats after per-oral administration; settings: rat, in vivo, read-out: Relative bioavailability

With `CCOc1nc2cccc(C(=O)OC(C)OC(=O)OC3CCCCC3)c2n1Cc1ccc(-c2ccccc2-c2nnn[nH]2)cc1` (stereo not shown) [c.c., candesartan cilexetil] the “Drug dissolved after 5 minutes” value [1] was 24, the “Drug dissolved after 10 minutes” value [1] was 43 and the “Drug dissolved after 15 minutes” value [1] was 54. The “Drug dissolved after 20 minutes” value [1] was 61, the Solubility in water [2] was < 0.05 µg/mL and the bioavailability ([3]; given as a suspension) was 19%. The bioavailability ([3]; given in solution) was 50%.
